Counter-ions that a name gives are not always drawn. Like-named read-outs stand apart in the source and are kept apart here. Marks after values point to notes of the source that are not given here.
Legend:
[1] = tested on: Norovirus (human norovirus, GT1 strain); test: microbe, parasite or virus in culture; format: cell-based; parameters: SI90: unit not given beside the values
Dengue Virus 2 = test: microbe, parasite or virus in culture; format: cell-based; parameters: SI50: unit not given beside the values
Zika virus [2] = test: microbe, parasite or virus in culture; format: cell-based; parameters: SI50: unit not given beside the values
West Nile virus = test: microbe, parasite or virus in culture; format: cell-based; parameters: SI50: unit not given beside the values
[3] = tested on: Respiratory synactial virus; test: organism not typed; format: cell-based; parameters: SI50: unit not given beside the values
Hepatitis C virus = test: microbe, parasite or virus in culture; format: cell-based; parameters: SI50 / SI90: unit not given beside the values
in vitro [4] = conditions: mouse
Murine norovirus = test: microbe, parasite or virus in culture; format: cell-based; parameters: SI50 / SI90: unit not given beside the values
in vitro [5] = conditions: African green monkey
physchem = conditions: 20 °C, pH 7.4, aqueous buffer, kinetic from dmso stock
Zika virus [6] = test: microbe, parasite or virus in culture; format: cell-based; parameters: SI50: unit not given beside the values; remark: listed apart in the source
Plasmodium falciparum = conditions: read-out: in vitro EC50; cited from earlier work
in vitro [7] = conditions: mouse, microsomes
Vaccinia Virus = test: microbe, parasite or virus in culture; format: cell-based; parameters: SI50 / SI90: unit not given beside the values
in vitro [8] = conditions: mouse, plasma, pH 7.4
Tacaribe virus = test: microbe, parasite or virus in culture; format: cell-based; parameters: SI50: unit not given beside the values
in vitro [9] = conditions: human, plasma, pH 7.4
in vitro [10] = conditions: human, Caco-2, pH 7.4
Hepatitis B virus = test: microbe, parasite or virus in culture; format: cell-based; parameters: SI50 / SI90: unit not given beside the values
MERS coronavirus = test: microbe, parasite or virus in culture; format: cell-based; parameters: SI50: unit not given beside the values
in vivo [11] = conditions: BALB/c, mouse, ip
[12] = mouse, in vivo; cited from earlier work
in vitro [13] = conditions: guinea pig, microsomes
Yellow Fever virus = test: microbe, parasite or virus in culture; format: cell-based; parameters: SI50: unit not given beside the values
EBOV in HeLa cells = format: cell-based, Ebola virus
Herpes Simplex Virus 1 = test: microbe, parasite or virus in culture; format: cell-based; parameters: SI50 / SI90: unit not given beside the values
CYP2C9 = CYP2C9 (Homo sapiens, UniProt P11712); test: biochemical
Sequence of CYP2C9 (P11712 whole entry): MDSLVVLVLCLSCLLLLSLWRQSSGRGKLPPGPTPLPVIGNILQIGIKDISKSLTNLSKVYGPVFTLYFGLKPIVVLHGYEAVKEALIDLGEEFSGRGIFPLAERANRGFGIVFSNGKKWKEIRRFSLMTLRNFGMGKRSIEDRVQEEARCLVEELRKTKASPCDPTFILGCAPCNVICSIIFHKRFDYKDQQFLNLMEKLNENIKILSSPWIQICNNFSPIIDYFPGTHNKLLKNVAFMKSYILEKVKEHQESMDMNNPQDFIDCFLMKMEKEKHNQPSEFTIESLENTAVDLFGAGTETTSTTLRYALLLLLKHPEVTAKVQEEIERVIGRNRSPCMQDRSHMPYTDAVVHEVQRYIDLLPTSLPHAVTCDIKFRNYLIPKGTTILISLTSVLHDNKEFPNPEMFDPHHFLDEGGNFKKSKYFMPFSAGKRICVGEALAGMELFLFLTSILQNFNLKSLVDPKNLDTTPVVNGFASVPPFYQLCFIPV

in vitro [14] = conditions: dog
CYP1A2 = CYP1A2 (Homo sapiens, UniProt P05177); test: biochemical
Sequence of CYP1A2 (P05177 whole entry): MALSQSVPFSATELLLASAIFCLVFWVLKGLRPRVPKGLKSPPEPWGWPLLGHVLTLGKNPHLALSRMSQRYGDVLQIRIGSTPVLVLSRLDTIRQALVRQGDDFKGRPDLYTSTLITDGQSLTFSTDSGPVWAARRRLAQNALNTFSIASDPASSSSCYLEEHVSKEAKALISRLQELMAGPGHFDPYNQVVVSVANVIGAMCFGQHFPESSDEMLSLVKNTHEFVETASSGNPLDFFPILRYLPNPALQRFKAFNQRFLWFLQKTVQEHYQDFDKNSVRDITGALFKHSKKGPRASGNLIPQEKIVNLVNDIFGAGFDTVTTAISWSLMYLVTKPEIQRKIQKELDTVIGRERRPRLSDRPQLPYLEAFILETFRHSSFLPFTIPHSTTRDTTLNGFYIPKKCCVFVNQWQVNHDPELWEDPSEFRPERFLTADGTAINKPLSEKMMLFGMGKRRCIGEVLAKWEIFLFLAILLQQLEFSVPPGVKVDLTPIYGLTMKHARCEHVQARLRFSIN

Poliovirus 3 = test: microbe, parasite or virus in culture; format: cell-based; parameters: SI50: unit not given beside the values
cytokines and chemokines = tested on: cytokines and chemokines; parameters: species or system mice; conditions: mouse, in vivo
Human cytomegalovirus = test: microbe, parasite or virus in culture; format: cell-based; parameters: SI50 / SI90: unit not given beside the values
Chikungunya virus = test: microbe, parasite or virus in culture; format: cell-based; parameters: SI50: unit not given beside the values
HeLa cells = conditions: cited from earlier work
CYP2C19 = CYP2C19 (Homo sapiens, UniProt P33261); test: biochemical
Sequence of CYP2C19 (P33261 whole entry): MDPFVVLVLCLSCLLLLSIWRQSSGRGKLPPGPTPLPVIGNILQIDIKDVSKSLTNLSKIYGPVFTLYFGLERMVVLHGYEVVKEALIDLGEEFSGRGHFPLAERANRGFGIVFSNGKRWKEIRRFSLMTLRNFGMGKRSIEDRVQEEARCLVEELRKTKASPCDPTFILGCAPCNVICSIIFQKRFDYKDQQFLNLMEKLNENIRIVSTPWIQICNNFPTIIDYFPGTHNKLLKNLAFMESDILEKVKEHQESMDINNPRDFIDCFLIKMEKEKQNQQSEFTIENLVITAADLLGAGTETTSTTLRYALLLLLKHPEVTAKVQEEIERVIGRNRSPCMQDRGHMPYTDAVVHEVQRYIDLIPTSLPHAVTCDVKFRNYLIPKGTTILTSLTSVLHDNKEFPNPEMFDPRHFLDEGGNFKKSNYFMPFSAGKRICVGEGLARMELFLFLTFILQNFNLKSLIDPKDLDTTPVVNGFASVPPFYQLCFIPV

CYP3A4 = CYP3A4 (Homo sapiens, UniProt P08684); test: biochemical
Sequence of CYP3A4 (P08684 whole entry): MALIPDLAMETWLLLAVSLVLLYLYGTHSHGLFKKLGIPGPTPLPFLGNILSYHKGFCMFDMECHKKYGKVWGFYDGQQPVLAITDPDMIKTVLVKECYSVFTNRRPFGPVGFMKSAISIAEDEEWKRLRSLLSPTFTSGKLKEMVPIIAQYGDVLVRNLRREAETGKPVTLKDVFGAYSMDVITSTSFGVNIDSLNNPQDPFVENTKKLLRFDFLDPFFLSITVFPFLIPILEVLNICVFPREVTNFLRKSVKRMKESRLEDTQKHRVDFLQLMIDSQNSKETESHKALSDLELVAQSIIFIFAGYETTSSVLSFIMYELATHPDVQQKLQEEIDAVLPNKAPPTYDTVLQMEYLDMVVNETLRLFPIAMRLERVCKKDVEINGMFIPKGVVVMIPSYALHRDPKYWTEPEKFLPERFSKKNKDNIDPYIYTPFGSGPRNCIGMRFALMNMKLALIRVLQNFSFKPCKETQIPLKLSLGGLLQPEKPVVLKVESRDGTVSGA

T. cruzi = conditions: mouse, in vivo; cited from earlier work
in vitro [15] = conditions: African green monkey; remark: listed apart in the source
in vitro [16] = conditions: human, microsomes
CYP2D6 = CYP2D6 (Homo sapiens, UniProt P10635); test: biochemical
Sequence of CYP2D6 (P10635 whole entry): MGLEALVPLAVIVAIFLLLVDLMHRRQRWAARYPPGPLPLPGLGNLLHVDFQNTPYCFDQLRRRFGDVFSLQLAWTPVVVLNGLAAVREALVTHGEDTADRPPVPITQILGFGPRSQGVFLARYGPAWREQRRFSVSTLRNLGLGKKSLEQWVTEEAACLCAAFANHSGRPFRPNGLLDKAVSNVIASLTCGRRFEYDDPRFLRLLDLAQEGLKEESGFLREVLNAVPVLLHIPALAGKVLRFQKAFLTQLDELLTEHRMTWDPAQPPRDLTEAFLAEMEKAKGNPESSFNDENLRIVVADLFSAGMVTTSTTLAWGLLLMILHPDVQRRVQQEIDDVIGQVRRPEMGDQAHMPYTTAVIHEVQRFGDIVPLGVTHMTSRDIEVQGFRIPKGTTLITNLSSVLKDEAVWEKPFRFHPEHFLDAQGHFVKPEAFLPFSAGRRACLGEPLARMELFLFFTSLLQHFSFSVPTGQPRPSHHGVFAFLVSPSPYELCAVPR

[17] = pH 7.4
[18] = mouse, in vivo
in vitro [19] = conditions: non-human primate, microsomes
[20] = tested on: Ebola virus (Zaire strain); test: microbe, parasite or virus in culture; format: cell-based; parameters: SI50: unit not given beside the values
[21] = tested on: Venezuelian equine encephalitis virus; test: organism not typed; format: cell-based; parameters: SI50: unit not given beside the values
Influenza A virus H1N1 = test: microbe, parasite or virus in culture; format: cell-based; parameters: SI50: unit not given beside the values
[22] = in vivo, cited from earlier work
in vivo [23] = conditions: both, BALB/c, mouse, ip
Rift Valley fever virus = test: microbe, parasite or virus in culture; format: cell-based; parameters: SI50: unit not given beside the values
EBOV [24] = conditions: mouse, in vivo; cited from earlier work
EBOV [25] = conditions: in vivo; cited from earlier work
EBOV [26] = conditions: in vivo; cited from earlier work; remark: listed apart in the source
[27] = Hepatitis B virus, HepG2 2.2.15

C[C@@]1(O)[C@H](O)[C@@H](CO)O[C@H]1n1ccc(N)nc1=O [2’C-methyl cytidine]
EC50 ([1]; read-out: EC50): 6.5 µM | CC50 (HG23): > 300 µM

COc1ccc2nc3cc(Cl)ccc3c(Nc3cc(CN4CCCC4)c(O)c(CN4CCCC4)c3)c2n1 [Pyronaridine, 4-[(7-Chloro-2-methoxybenzo[b][1, 5]naphthyridin-10-yl)amino]-2,6-bis(1-pyrrolidinylmethyl)phenol phosphate (1:4)]
SI50 (Dengue Virus 2): 1 | EC50 (Dengue Virus 2; Dengue virus, Vero 76): 3.2 µM | SI50 (Zika virus [2]): 1 | EC50 (Zika virus [2]; Zika virus, Huh-7): 3.2 µM | SI50 (West Nile virus): 0 | EC50 (West Nile virus; West Nile virus, Vero 76): > 24 µM | SI50 [3]: 0 | EC50 ([3]; MA104): > 7.5 µM | SI50 (Hepatitis C virus): 1 | SI90 (Hepatitis C virus): <1 | EC50 (Hepatitis C virus; Hepatitis C virus, Huh-7): 780 nM | EC90 (Hepatitis C virus; Hepatitis C virus, Huh-7): 1710 nM | CC50 (in vitro [4]): > 40 µM | SI50 (Murine norovirus): 1 | SI90 (Murine norovirus): 1 | EC50 (Murine norovirus; Norwalk virus, RAW267.4): > 40 µM | EC90 (Murine norovirus; Norwalk virus, RAW267.4): > 40 µM | CC50 (in vitro [5]; CC50): 3.2 µM | CC50 (in vitro [5]; approximate CC50): ~3 µM | solubility (physchem): 168 µM | SI50 (Zika virus [6]): 1 | EC50 (Zika virus [6]; Zika virus, Vero 76): 3.2 µM | EC50 (Plasmodium falciparum): 13.5 nM | half-life (in vitro [7]): 173 min | microsomal CLint (in vitro [7]): 4 µL/min/mg | SI50 (Vaccinia Virus): <3 | SI90 (Vaccinia Virus): <3 | EC50 (Vaccinia Virus; Orthopoxvirus vaccinia, HFF): > 1200 nM | EC90 (Vaccinia Virus; Orthopoxvirus vaccinia, HFF): > 1200 nM | fraction unbound (in vitro [8]): 0.035 | SI50 (Tacaribe virus): 0 | EC50 (Tacaribe virus; Mammarenavirus tacaribeense, Vero): > 3.2 µM | fraction unbound (in vitro [9]): 0.049 | SI90 [1]: 10 | EC50 ([1]; Norovirus, GT1, HG23): 3.5 µM | EC90 ([1]; Norovirus, GT1, HG23): 9.7 µM | Papp A→B (in vitro [10]): 6.46 ×10⁻⁶ cm/s | Papp B→A (in vitro [10]): 4.8 ×10⁻⁶ cm/s | efflux ratio (in vitro [10]): 0.74 | SI50 (Hepatitis B virus): <1 | SI90 (Hepatitis B virus): <1 | EC50 (Hepatitis B virus; [27]): 4.52 µM | EC90 (Hepatitis B virus; [27]): > 100 µM | SI50 (MERS coronavirus): 1 | EC50 (MERS coronavirus; Middle East respiratory syndrome-related coronavirus, Vero 76): 3.2 µM | AUC(0-t) (in vivo [11]; female, 5 mg/kg): 257 ng·h/mL | Cmax (in vivo [11]; female, 5 mg/kg): 54 ng/mL | Tmax (in vivo [11]; female, 5 mg/kg): 4.98 min | AUC(0-t) (in vivo [11]; female, 25 mg/kg): 956 ng·h/mL | Cmax (in vivo [11]; female, 25 mg/kg): 160 ng/mL | AUC(0-t) (in vivo [11]; male, 5 mg/kg): 192 ng·h/mL | Cmax (in vivo [11]; male, 5 mg/kg): 44.4 ng/mL | AUC(0-t) (in vivo [11]; male, 25 mg/kg): 713 ng·h/mL | Cmax (in vivo [11]; male, 25 mg/kg): 115 ng/mL | AUC(0-inf) (in vivo [11]; male, 75 mg/kg): 33900 ng·h/mL | AUC(0-t) (in vivo [11]; male, 75 mg/kg): 33000 ng·h/mL | Cmax (in vivo [11]; male, 75 mg/kg): 982 ng/mL | half-life (in vivo [11]; male, 75 mg/kg): 6.08 days | LD50 [12]: 1342 mg/kg | half-life (in vitro [13]): 44.4 min | microsomal CLint (in vitro [13]): 15.6 µL/min/mg | SI50 (Yellow Fever virus): 1 | EC50 (Yellow Fever virus; Yellow fever virus, Vero 76): 3.2 µM | SI (EBOV in HeLa cells): ~ 3 | SI50 (Herpes Simplex Virus 1): <1 | SI90 (Herpes Simplex Virus 1): <1 | EC50 (Herpes Simplex Virus 1; Human alphaherpesvirus 1, HFF): > 6 µM | EC90 (Herpes Simplex Virus 1; Human alphaherpesvirus 1, HFF): > 6 µM | IC50 (CYP2C9): > 50 µM | CC50 (in vitro [14]): 3.2 µM | IC50 (CYP1A2): > 50 µM | SI50 (Poliovirus 3): 1 | EC50 (Poliovirus 3; Enterovirus C, Vero 76): 3.2 µM | IFN-α/β concentrations (cytokines and chemokines): below the level of detection | cytokine/chemokine levels over vehicle or naïve controls (cytokines and chemokines): did not elicit a statistically significant increase | SI50 (Human cytomegalovirus): <3 | SI90 (Human cytomegalovirus): <3 | EC50 (Human cytomegalovirus; Human betaherpesvirus 5, HFF): > 1200 nM | EC90 (Human cytomegalovirus; Human betaherpesvirus 5, HFF): > 1200 nM | SI50 (Chikungunya virus): 1 | EC50 (Chikungunya virus; Chikungunya virus, Vero 76): 3.2 µM | CC50 (HeLa cells): 3.1 µM | IC50 (CYP2C19): > 50 µM | IC50 (CYP3A4): 42.9 µM | efficacy rate (T. cruzi): 85% | CC50 (in vitro [15]): 7.5 µM | microsomal CLint (in vitro [16]): 4.1 µL/min/mg | IC50 (CYP2D6): 2230 nM | abundance relative to parent drug (Mouse) [17]: 100%* | clinical observations in PK study [18]: ruffled fur and eye squinting | time of peak plasma levels ([18]; ip): 0.25 and 1 | half-life (in vitro [19]): 140 min | microsomal CLint (in vitro [19]): 4.9 µL/min/mg | SI50 [20]: 0 | anti-EBOV activity (Zaire strain) [20]: lack of antiviral activity | EC50 ([20]; Zaire ebolavirus, Vero 76): > 1300 nM | SI50 [21]: 1.8 | EC50 ([21]; Vero 76): 1800 nM | SI50 (Influenza A virus H1N1): 1 | EC50 (Influenza A virus H1N1; Influenza A virus, H1N1, MDCK): 3.2 µM | t1/2 ([22]; human, po, 400 mg): 10 days | volume of distribution ([22]; human, po, 400 mg): 41.2 L/kg | half-life elimination in whole blood ([22]; human): approximately 17 d | t1/2 in humans ([22]; human): 195 to 251 h | total radioactive half-life [22]: 33.5 days | MTD (in vivo [23]): 100 mg/kg | SI50 (Rift Valley fever virus): 1 | EC50 (Rift Valley fever virus; Rift Valley fever virus, Vero 76): 3.2 µM

CCN(CC)CCOc1ccc2c(c1)C(=O)c1cc(OCCN(CC)CC)ccc1-2 [Tilorone, tilorone dihydrochloride]
IFN-α/β levels (cytokines and chemokines): below the LLOD | cytokine/chemokine protein concentrations over vehicle-treated and naïve mice (cytokines and chemokines): statistically significant increase in observed protein concentrations

CCN(CC)CCCC(C)Nc1ccnc2cc(Cl)ccc12 (stereo not shown) [chloroquine]
survival rate (EBOV [24]): 90% | activity in guinea pig studies (EBOV [25]): inactive

B1: mAb114 (antibody, chains of the INN, looked up, V domains shown)
VH: EVQLVESGGGLIQPGGSLRLSCAASGFALRMYDMHWVRQTIDKRLEWVSAVGPSGDTTYADSVKGRFAVSRENAKNSLSLQMNSLTAGDTAIYYCVRSDRGVAGLFDSWGQGILVTVSS
VL: DIQMTQSPSSLSASVGDRITITCRASQAFDNYVAWYQQRPGKVPKLLISAASALHAGVPSRFSGSGSGTHFTLTISSLQPEDVATYYCQNYNSAPLTFGGGTKVEIK
survival rates in clinical trial (EBOV [26]): higher survival rates than ZMapp and remdesivir
